Results on 19 molecules are retold here after patent publication US20230286958A1, “PLASMA KALLIKREIN INHIBITORS” (Merck Sharp & Dohme LLC, priority 2020, published 2023).

pIC50: −log10 of the molar value. Where only a bound is given, the exact number is not on record here.

The target in one assay is human Factor XIa (Homo sapiens (Human), UniProt P03951). Nature of the assay: Factor XIa Assay (fluorogenic substrate GPR-AFC). Conditions: Factor XIa (FXIa). The class given is biochemical.
Another assay concerns the target Human plasma kallikrein (Homo sapiens (Human), UniProt P03952). Kind of assay: Kallikrein Assay (fluorogenic substrate Acetyl-K-P-R-AFC). The assay is classed as biochemical. As to conditions: Plasma Kallikrein (PKal). Summed up:
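Ki is derived from IC50 with the Cheng-Prusoff equation, and IC50 from the inflection point of a four-parameter logistic curve. The rate of AFC release is read with 0.5 nM purified enzyme and […] substrate at room temperature or 37 °C.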

Sequence of Human plasma kallikrein (P03952 391-638): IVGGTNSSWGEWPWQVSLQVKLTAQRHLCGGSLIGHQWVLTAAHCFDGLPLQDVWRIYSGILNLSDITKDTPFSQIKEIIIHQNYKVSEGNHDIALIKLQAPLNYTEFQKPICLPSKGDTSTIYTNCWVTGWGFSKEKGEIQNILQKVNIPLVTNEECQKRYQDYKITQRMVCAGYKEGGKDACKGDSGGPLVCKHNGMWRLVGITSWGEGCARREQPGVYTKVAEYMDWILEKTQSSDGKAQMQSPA
Sequence of Human plasma kallikrein (P03952 20-390 partner): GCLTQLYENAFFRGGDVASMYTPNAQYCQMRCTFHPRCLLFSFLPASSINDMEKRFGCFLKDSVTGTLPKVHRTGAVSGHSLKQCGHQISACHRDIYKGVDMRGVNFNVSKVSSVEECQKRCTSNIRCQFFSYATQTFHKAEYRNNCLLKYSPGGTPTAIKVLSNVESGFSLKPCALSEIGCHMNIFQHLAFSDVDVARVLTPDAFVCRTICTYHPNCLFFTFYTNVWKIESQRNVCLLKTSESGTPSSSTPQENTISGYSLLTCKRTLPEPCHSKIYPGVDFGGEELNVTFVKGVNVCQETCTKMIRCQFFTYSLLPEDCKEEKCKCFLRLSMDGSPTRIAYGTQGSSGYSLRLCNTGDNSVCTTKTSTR
Sequence of human Factor XIa (P03951 388-625 limits assumed): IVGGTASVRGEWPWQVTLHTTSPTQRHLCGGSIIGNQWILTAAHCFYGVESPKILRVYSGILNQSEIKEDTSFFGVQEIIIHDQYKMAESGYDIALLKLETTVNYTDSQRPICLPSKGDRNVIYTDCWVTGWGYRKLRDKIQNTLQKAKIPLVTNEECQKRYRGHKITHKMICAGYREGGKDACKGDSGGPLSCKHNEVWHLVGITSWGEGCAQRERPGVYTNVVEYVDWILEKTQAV
Sequence of human Factor XIa (P03951 19-387 partner limits assumed): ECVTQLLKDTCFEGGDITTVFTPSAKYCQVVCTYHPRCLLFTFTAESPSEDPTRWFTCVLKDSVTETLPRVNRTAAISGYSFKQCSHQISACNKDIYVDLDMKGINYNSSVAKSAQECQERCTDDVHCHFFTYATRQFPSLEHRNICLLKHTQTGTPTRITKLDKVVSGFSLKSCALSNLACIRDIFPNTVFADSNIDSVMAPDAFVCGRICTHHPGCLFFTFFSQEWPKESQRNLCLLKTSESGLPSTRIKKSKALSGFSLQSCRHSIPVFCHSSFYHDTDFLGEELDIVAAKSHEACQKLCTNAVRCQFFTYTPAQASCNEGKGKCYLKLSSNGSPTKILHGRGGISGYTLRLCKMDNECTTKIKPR

The pIC50 is −log10 of the IC50, conventionally taken in molar units. `Cc1ncc(-c2c(OC(F)F)ccc(Cl)c2F)nc1C(=O)Nc1cnn(C(C)c2cnc(N3C[C@H]4C[C@H]4C3=O)c(C)n2)c1` (single isomer, unassigned) [Example 124, 6-(3-Chloro-6-(difluoromethoxy)-2-fluorophenyl)-3-methyl-N-(1-((R or S)-1-(6-methyl-5-((1R,5S)-2-oxo-3-azabicyclo[3.1.0]hexan-3-yl)pyrazin-2-yl)ethyl)-1H-pyrazol-4-yl)pyrazine-2-carboxamide]: the values for the pIC50 on human Factor XIa and on Human plasma kallikrein were 6.02 and 9.22, respectively.
Regarding `Cc1cc([C@H](C)n2cc(NC(=O)c3nc(-c4c(OC(F)F)ccc(Cl)c4F)cnc3C)cn2)nnc1N1C[C@H]2C[C@H]2C1=O` [Example 39, 6-(3-Chloro-6-(difluoromethoxy)-2-fluorophenyl)-3-methyl-N-(1-((S)-1-(5-methyl-6-((1R,5S)-2-oxo-3-azabigyclo[3.1.0]hexan-3-yl)pyridazin-3-yl)ethyl)-1H-pyrazol-4-yl)pyrazine-2-carboxamide], the pIC50 against human Factor XIa was 6.48; against Human plasma kallikrein, 9.40.
As to `Cc1nc(C(C)n2cc(NC(=O)c3nc(-c4c(C(F)F)ccc(Cl)c4F)cnc3CO)cn2)cnc1N1C[C@H]2C[C@H]2C1=O` (single isomer, unassigned) [Example 198, 6-(3-Chloro-6-(difluoromethyl)-2-fluorophenyl)-3-(hydroxymethyl-N-(1-((R or S)-I-(6-methyl-5-((1R,5S)-2-oxo-3-azabicyclo[3.1.0]hexan-3-yl)pyrazin-2-yl)ethyl)-1H-pyrazol-4-yl)pyrazine-2-carboxamide], the pIC50 is 6.96 against human Factor XIa and 10.00 on Human plasma kallikrein.
Take `Cc1nc(N2C[C@H]3C[C@H]3C2=O)ncc1C(C)n1cc(NC(=O)c2nc(-c3c(C(F)F)ccc(Cl)c3F)cc(=O)n2C)cn1` (single isomer, unassigned) [Example 79, 4-(3-Chloro-6-(difluoromethyl)-2-fluorophenyl)-1-methyl-N-(1-((S or R)-1-(4-methyl-2-((1R,5S)-2-oxo-3-azabicyclo[3.1.0]hexan-3-yl)pyrimidin-5-yl)ethyl)-1H-pyrazol-4-yl)-6-oxo-1,6-dihydropyrimidine-2-carboxamide]: the pIC50 was 7.24 against human Factor XIa and 9.30 on Human plasma kallikrein.
For `Cc1ncc(-c2c(C(F)F)ccc(Cl)c2F)nc1C(=O)Nc1cnn(C(C)c2ncc(N3C[C@H]4C[C@H]4C3=O)c(C)c2N)c1` (single isomer, unassigned) [Example 118, N-(1-((R or S)-1-(3-Amino-4-methyl-5-((1R,5S)-2-oxo-3-azabicyclo[3.1.0]hexan-3-yl)pyridin-2-yl)ethyl)-1H-pyrazol-4-yl)-6-(3-chloro-6-(difluoromethyl)-2-fluorophenyl)-3-methylpyrazine-2-carboxamide], the results for the pIC50 on human Factor XIa and against Human plasma kallikrein were 5.12 and 9.00, respectively.
For `CC(c1cnc(N2C[C@H]3C[C@H]3C2=O)c(C(F)F)c1)n1cc(NC(=O)c2cncc(-c3c(C(F)F)ccc(Cl)c3F)n2)cn1` (single isomer, unassigned) [Example 77, 6-(3-Chloro-6-(difluoromethyl)-2-fluorophenyl)-N-(1-((S or R)-1-(5-(difluoromethyl)-6-((1R,5S)-2-oxo-3-azabicyclo[3.1.0]hexan-3-yl)pyridin-3-yl)ethyl)-1H-pyrazol-4-yl)pyrazine-2-carboxamide], in that order: 5.10 and 7.90.
Take `Cc1cc(N2C[C@H]3C[C@H]3C2=O)ncc1C(C)n1cc(NC(=O)c2nc(-c3c(C(F)F)ccc(Cl)c3F)cnc2CO)cn1` (single isomer, unassigned) [Example 203, 6-(3-Chloro-6-(difluoromethyl)-2-fluorophenyl)-3-(hydroxymethyl)-N-(1-((S or R)-1-(4-methyl-6-((1R,5S)-2-oxo-3-azabicyclo[3.1.0]hexan-3-yl)pyridin-3-yl)ethyl)-1H-pyrazol-4-yl)pyrazine-2-carboxamide]: the pIC50 was 6.55 on human Factor XIa and 9.52 at Human plasma kallikrein.
In the case of `Cc1ncc(-c2c(C(F)F)ccc(Cl)c2F)nc1C(=O)Nc1cnn(C(C)c2ncc(N3C[C@H]4C[C@H]4C3=O)cn2)c1` (single isomer, unassigned) [Example 6, 6-(3-Chloro-6-(difluoromethyl)-2-fluorophenyl)-3-methyl-N-(1-((R or S)-1-(5-((1R,5S)-2-oxo-3-azabicyclo[3.1.0]hexan-3-yl)pyrimidin-2-yl)ethyl)-1H-pyrazol-4-yl)pyrazine-2-carboxamide], the pIC50 at human Factor XIa is less than 5.00; at Human plasma kallikrein, 9.05.
In the case of `Cc1nc(C2(n3cc(NC(=O)c4nc(-c5c(C(F)F)ccc(Cl)c5F)cnc4CO)cn3)CC2)cnc1N1C[C@H]2C[C@H]2C1=O` [Example 223, 6-(3-Chloro-6-(difluoromethyl)-2-fluorophenyl)-3-(hydroxymethyl)-N-(1-(1-(6-methyl-5-((1R,5S)-2-oxo-3-azabicyclo[3.1.0]hexan-3-yl)pyrazin-2-yl)cyclopropyl)-1H-pyrazol-4-yl)pyrazine-2-carboxamide], the pIC50 is 5.73 against human Factor XIa and 9.00 on Human plasma kallikrein.
For `Cc1cc(C(C)n2cc(NC(=O)c3nc(-c4c(C(F)F)ccc(Cl)c4F)cnc3C)cn2)cnc1N1C[C@H]2C[C@H]2C1=O` (single isomer, unassigned) [Example 119, 6-(3-Chloro-6-(difluoromethyl)-2-fluorophenyl)-3-methyl-N-(1-((S or R)-1-(5-methyl-6-((1R,5S)-2-oxo-3-azabicyclo[3.1.0]hexan-3-yl)pyridin-3-yl)ethyl)-1H-pyrazol-4-yl)pyrazine-2-carboxamide], in that order: 6.11 and 9.22.
On to `C=Cc1ncc(-c2c(C(F)F)ccc(Cl)c2F)nc1C(=O)Nc1cnn(Cc2cnc(N3C[C@H]4C[C@H]4C3=O)nc2C)c1` [Example 35, 6-(3-Chloro-6-(difluoromethyl)-2-fluorophenyl)-N-(1-((4-methyl-2-((1R,5S)-2-oxo-3-azabicyclo[3.1.0]hexan-3-yl)pyrimidin-5-yl)methyl)-1H-pyrazol-4-yl)-3-vinylpyrazine-2-carboxamide], for which the pIC50 at human Factor XIa was 5.31; on Human plasma kallikrein, 8.17.
For `Cc1ncc(-c2c(C(F)F)ccc(Cl)c2F)nc1C(=O)Nc1cnn(C(C)c2cnc(N3C[C@H]4C[C@H]4C3=O)c(C)n2)c1` (single isomer, unassigned) [Example 15, 6-(3-Chloro-6-(difluoromethyl)-2-fluorophenyl)-3-methyl-N-(1-((R or S)-1-(6-methyl-5-((1R,5S)-2-oxo-3-azabicyclo[3.1.0]hexan-3-yl)pyrazin-2-yl)ethyl)-1H-pyrazol-4-yl)pyrazine-2-carboxamide], the values for the pIC50 against human Factor XIa and at Human plasma kallikrein were 6.00 and 9.40, respectively.
On the same counts, the results for `Cc1cc(Cn2cc(NC(=O)c3nc(-c4c(OC(F)F)ccc(Cl)c4F)cnc3C)cn2)nnc1N1C[C@H]2C[C@H]2C1=O` [Example 113, 6-(3-Chloro-6-(difluoromethoxy)-2-fluorophenyl)-3-methyl-N-(1-((5-methyl-6-((1R,SS)-2-oxo-3-azabicyclo[3.1.0]hexan-3-yl)pyridazin-3-yl)methyl)-1H-pyrazol-4-yl)pyrazine-2-carboxamide] are 6.94 and 8.68.
On to `Cc1ncc(-c2c(C(F)F)ccc(Cl)c2F)nc1C(=O)Nc1cnn(C(C)c2ccc(N3CC4CC4C3=O)nc2)c1` (single isomer, unassigned) [Example 74, 6-(3-Chloro-6-(difluoromethyl)-2-fluorophenyl)-3-methyl-N-(1-((S or R)-1-(6-((1R,5S or 1S,5R)-2-oxo-3-azabicyclo[3.1.0]hexan-3-yl)pyridin-3-yl)ethyl)-1H-pyrazol-4-yl)pyrazine-2-carboxamide], for which the values for the pIC50 against human Factor XIa and against Human plasma kallikrein were 5.12 and 7.84, respectively.
Take `C[C@@H](c1cnc(N2C[C@H]3C[C@H]3C2=O)nc1)n1cc(NC(=O)c2nc(-c3c(C(F)F)ccc(Cl)c3F)cnc2CC(C)(C)O)cn1` [Example 180]: the pIC50 at human Factor XIa was 5.31; on Human plasma kallikrein, 8.11.
Turning to `Cc1c(C(C)n2cc(NC(=O)c3cncc(-c4c(C(F)F)ccc(Cl)c4F)n3)cn2)nnc(N2C[C@H]3C[C@H]3C2=O)c1C` (single isomer, unassigned) [Example 110, 6-(3-Chloro-6-(difluoromethyl)-2-fluorophenyl)-N-(1-((S or R)-1-(4,5-dimethyl-6-((1R,5S)-2-oxo-3-azabicyclo[3.1.0]hexan-3-yl)pyridazin-3-yl)ethyl)-1H-pyrazol-4-yl)pyrazine-2-carboxamide], the pIC50 is 5.46 against human Factor XIa and 7.85 at Human plasma kallikrein.
`Cc1cc(C(C)n2cc(NC(=O)c3cncc(-c4c(OC(F)F)ccc(Cl)c4F)n3)cn2)nnc1N1C[C@H]2C[C@H]2C1=O` (single isomer, unassigned) [Example 115, 6-(3-Chloro-6-(difluoromethoxy)-2-fluorophenyl)-N-(1-((R or S)-1-(5-methyl-6-((1R,5S)-2-oxo-3-azabicyclo[3.1.0]hexan-3-yl)pyridazin-3-yl)ethyl)-1H-pyrazol-4-yl)pyrazine-2-carboxamide]: the pIC50 at human Factor XIa was 6.33; against Human plasma kallikrein it was 8.60.
As for `Cc1ncc(-c2c(C(F)F)ccc(Cl)c2F)nc1C(=O)Nc1cnn(C(C)c2ccc(N3CC4CC4C3=O)nc2)c1` (single isomer, unassigned) [Example 75, 6-(3-Chloro-6-(difluoromethyl)-2-fluorophenyl)-3-methyl-N-(1-((R or S)-1-(6-((1R,5S or 1S,5R)-2-oxo-3-azabicyclo[3.1.0]hexan-3-yl)pyridin-3-yl)ethyl)-1H-pyrazol-4-yl)pyrazine-2-carboxamide], the pIC50 at human Factor XIa was less than 5.00; at Human plasma kallikrein, 8.32.
Regarding `CC(c1cnc(N2C[C@H]3C[C@H]3C2=O)c2c1OCO2)n1cc(NC(=O)c2cncc(-c3c(C(F)F)ccc(Cl)c3F)n2)cn1` (single isomer, unassigned) [Example 251, 6-(3-Chloro-6-(difluoromethyl)-2-fluorophenyl)-N-(1-((R or S)-1-(4-((1R,5S)-2-oxo-3-azabicyclo[3.1.0]hexan-3-yl)-[1,3]dioxolo[4,5-c]pyridin-7-yl)ethyl)-1H-pyrazol-4-yl)pyrazine-2-carboxamide], the pIC50 against human Factor XIa is 5.61; against Human plasma kallikrein it was 9.00.
